# Measurements from patent US11180498B2, “Substituted pyrrolo[2,3-b]pyridines, pyrazolo[3,4-d]pyrimidines and [1,2,3]triazolo[4,5-b]pyridines as potent antivirals” (The Regents of the University of California, priority 2017, dated 2021).
# Legend:
# [1] = system: HeLa-RW cells; assay: Cytotoxicity (CC50) in HeLa-RW cells; type: cell-based; details: concentration that reduces host cell viability by 50%
# Description: (§1) Each compound is initially tested against each virus at 10 μM in a virus CPE assay. A compound that is active against a virus, protecting the cells from CPE, is further evaluated for its 50% effective concentration (EC50) value and 50% cytotoxicity concentration (CC50) value. Serial 2-fold dilutions of an active compound are prepared. For EC50 value determination, a 7-point dose-response curve is constructed using a virus CPE assay and EC50 value is estimated using four parameter model or sigmoidal model. For CC50 value determination, cells are incubated with serial 2-fold dilutions of a compound for the same period as the virus CPE assay, and then cells were fixed, stained and read as in the virus CPE assay.
# (§2) Table 3 provides the compound concentration in μM units that reduces cell viability of the host cell by 50% (CC50) for certain compounds of the present technology for HeLa-RW and LLC cells. Blank cells indicate that the cytotoxicity assessment is not yet complete.
# [2] = system: Coxsackievirus B2; assay: Virus CPE assay, CVB2 in HeLa-RW cells; type: cell-based; details: Enterovirus B, >10 = no antiviral activity at 10 μM
# [3] = Cytotoxicity (CC50) in RD cells; type: cell-based; details: human
# Description: as §1
# Table 4 provides the results of cell-based assays with RD cells evaluating the antiviral activities of certain representative compounds of the present technology with certain strains of Enterovirus D68, namely strains Fermon (“D68/Fermon”), US/Mo/14-18949 (“D68/US/Mo/14-18949”), and US/KY/14-18953 (“D68/US/KY/14-18953”). The values indicated in the strain columns are EC50 values in μM units. The CC50 values (in μM units) for RD cells are also provided for evaluation of SI50.
# [4] = system: Enterovirus D68 strain US/KY/14-18953; assay: Virus CPE assay, Enterovirus D68 US/KY/14-18953 in RD cells; type: cell-based; details: Enterovirus D
# Description: (§3) Cells growing in 96 well plates are infected with a given virus at given low multiplicities of infection pre-determined to result in 100% cytopathic effects (CPE) in the cultures after 3-4 days incubation. Cultures are monitored daily for microscopic signs of typical CPE: rounding of cells and detachment. […] Dead cells and debris are washed out and the remaining blue stain intensity in each well is quantified by spectrophotometry at a wavelength of 590 nm (OD590) as a measurement of viability. […] Serial 2-fold dilutions of an active compound are prepared. […] Table 4 provides the results of cell-based assays with RD cells evaluating the antiviral activities of certain representative compounds of the present technology with certain strains of Enterovirus D68, namely strains Fermon (“D68/Fermon”), US/Mo/14-18949 (“D68/US/Mo/14-18949”), and US/KY/14-18953 (“D68/US/KY/14-18953”). The values indicated in the strain columns are EC50 values in μM units. The CC50 values (in μM units) for RD cells are also provided for evaluation of SI50.
# [5] = system: Coxsackievirus B3-H3; assay: Virus CPE assay, CVB3-H3 in HeLa-RW cells; type: cell-based; details: >10/>25 = no antiviral activity at 10 or 25 μM
# [6] = system: LLC cells; assay: Cytotoxicity (CC50) in LLC cells; type: cell-based; details: concentration that reduces host cell viability by 50%
# Description: as §1, §2
# [7] = system: Enterovirus D68 strain US/Mo/14-18949; assay: Virus CPE assay, Enterovirus D68 US/Mo/14-18949 in RD cells; type: cell-based; details: for EC50: Enterovirus D, RD cells
# Description: as §3
# [8] = system: Echovirus 11; assay: Virus CPE assay, ECHO11 in LLC cells; type: cell-based; details: Enterovirus B, >10 = no antiviral activity at 10 μM
# [9] = system: Echovirus 9; assay: Virus CPE assay, ECHO09 in LLC cells; type: cell-based; details: Enterovirus B, >10 = no antiviral activity at 10 μM
# [10] = system: Poliovirus 3; assay: microbe, parasite or virus in culture; type: cell-based; details: Enterovirus C, read-out: EC50 PV3
# [11] = system: Enterovirus 71; assay: Virus CPE assay, EV71 in LLC cells; type: cell-based; details: Enterovirus A, >10 = no antiviral activity at 10 μM
# [12] = system: Enterovirus D68 strain Fermon; assay: Virus CPE assay, Enterovirus D68 Fermon in RD cells; type: cell-based; details: Enterovirus D
# Description: as §3
# [13] = system: Coxsackievirus B1; assay: Virus CPE assay, CVB1 in HeLa-RW cells; type: cell-based; details: Enterovirus B, >10 = no antiviral activity at 10 μM
# [14] = system: Poliovirus 1; assay: microbe, parasite or virus in culture; type: cell-based; details: Enterovirus C, read-out: EC50 PV1
# [15] = system: Coxsackievirus B4; assay: Virus CPE assay, CVB4 in HeLa-RW cells; type: cell-based; details: Enterovirus B, >10 = no antiviral activity at 10 μM
# [16] = system: Enterovirus D68; assay: Antiviral cell-based assays, summary for at least one strain; details: Enterovirus D, not named, read-out: EC50 against at least one strain
# Description: as §3
# [17] = system: Coxsackievirus B5; assay: Virus CPE assay, CVB5 in HeLa-RW cells; type: cell-based; details: Enterovirus B, >10 = no antiviral activity at 10 μM
# [18] = system: Echovirus 7; assay: Virus CPE assay, ECHO07 in LLC cells; type: cell-based; details: Enterovirus B, >10 = no antiviral activity at 10 μM
# [19] = system: Coxsackievirus A9; assay: Virus CPE assay, COX A9 in LLC cells; type: cell-based; details: Enterovirus B, >10 = no antiviral activity at 10 μM
# [20] = system: Echovirus 6; assay: Virus CPE assay, ECHO06 in LLC cells; type: cell-based; details: Enterovirus B, >10 = no antiviral activity at 10 μM
# [21] = system: Echovirus 25; assay: Virus CPE assay, ECHO25 in LLC cells; type: cell-based; details: Enterovirus B, >10 = no antiviral activity at 10 μM
# [22] = system: Echovirus 30; assay: Virus CPE assay, ECHO30 in LLC cells; type: cell-based; details: Enterovirus B, >10 = no antiviral activity at 10 μM
# [23] = Cytotoxicity (CC50) in LLC cells; type: cell-based; details: LLC cells; concentration that reduces host cell viability by 50%
# Description: as §1, §2
SMILES,CC50 [1] [µM],EC50 [2] [µM],CC50 [3] [µM],EC50 [4] [µM],EC50 [5] [µM],CC50 [6] [µM],EC50 [7] [µM],EC50 [8] [µM],EC50 [9] [µM],EC50 [10] [µM],EC50 [11] [µM],EC50 [12] [µM],EC50 [13] [µM],EC50 [14] [µM],EC50 [15] [µM],EC50 [16] [µM],EC50 [17] [µM],EC50 [18] [µM],EC50 [19] [µM],EC50 [20] [µM],also measured
CC(C)n1ccc2c(C(=O)Nc3cccnc3)cc(-c3cccs3)nc21 [JX-062],18,1.2,25,0.26 ± 0.07,1.3,25,0.13 ± 0.03,1.2,0.4,> 10,0.8,0.16 ± 0.03,1.2,> 10,1.2,< 1,1.2,,,,
"CC(C)n1ncc2c(C(=O)Nc3ccccc3F)cc(-c3cccs3)nc21 [JX-001, reference compound]",12.5,2.8 ± 0.4,200,0.5 ± 0.17,1.4 ± 0.6,50,0.33 ± 0.05,1.5 ± 0.4,2.1 ± 1.2,7,2.3 ± 1.2,0.35 ± 0.05,2.4 ± 0.2,7,2.3,,2.3,2.4,2.6 ± 0.9,2.3 ± 0.9,EC50 [21]: 3 µM; EC50 [22]: 1.2 µM
CC(C)n1ncc2c(C(=O)Nc3ccc(F)cc3)nc(-c3cccs3)nc21 [JX-036],,> 10,,,> 10,,,> 10,> 10,> 10,> 10,,> 10,> 10,> 10,,> 10,> 10,> 10,> 10,EC50 [21]: > 10 µM; EC50 [22]: > 10 µM
CC(C)n1ccc2c(C(=O)Nc3ccncc3)cc(-c3cccs3)nc21 [JX-063],,> 10,,,> 10,,,,,> 10,,,> 10,> 10,> 10,,> 10,,,,
CC(C)n1ccc2c(C(=O)Nc3ccc(F)cc3)cc(-c3cccs3)nc21 [JX-037],,3.6 ± 0.6,> 200,1.1 ± 0.3,3.1 ± 0.1,,0.57 ± 0.15,,,> 25,2.2,0.86 ± 0.31,3.6 ± 0.6,> 25,3.1 ± 0.1,< 1,2.7 ± 0.6,,,,"CC50 [23]: 100 µM; SI ([7]; Enterovirus D68/US/Mo/14-18949, >200/0.57): over 350"
CC(C)n1ccc2c(C(=O)Nc3ccccn3)cc(-c3cccs3)nc21 [JX-072],18.8,2.33,25,0.6,2.2 ± 0.4,> 200,,,,> 10,1.2,< 0.4,1.56,> 10,,< 1,,3,,,
CC(C)n1nnc2c(C(=O)Nc3ccc(F)cc3)cc(-c3cccs3)nc21 [JX-035],,> 10,,,> 10,,,> 10,> 10,> 10,> 10,,> 10,> 10,> 10,,> 10,> 10,> 10,> 10,EC50 [21]: > 10 µM; EC50 [22]: > 10 µM
